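96-well plates; 48 h exposure; 5 concentrations. Endpoints by linear interpolation between flanking doses. Not reached: highest tested concentration assigned. GI50: concentration for 50% inhibition of growth. TGI is the concentration that stops growth completely.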
What was measured:
Test in all cases: NCI tumour cell line growth inhibition, 48 h
CAKI-1 renal = tested on: CAKI-1 renal
A549 NSCLC = tested on: A549 NSCLC
SF-268 CNS = tested on: SF-268 CNS
HOP-62 NSCLC = tested on: HOP-62 NSCLC
SF-295 CNS = tested on: SF-295 CNS
UACC-62 melanoma = tested on: UACC-62 melanoma
TK-10 renal = tested on: TK-10 renal
SW-620 colon = tested on: SW-620 colon
EKVX NSCLC = tested on: EKVX NSCLC
M14 melanoma = tested on: M14 melanoma
SR leukemia = tested on: SR leukemia
OVCAR-8 ovarian = tested on: OVCAR-8 ovarian
SNB-75 CNS = tested on: SNB-75 CNS
SK-MEL-28 melanoma = tested on: SK-MEL-28 melanoma
LOX IMVI melanoma = tested on: LOX IMVI melanoma
OVCAR-4 ovarian = tested on: OVCAR-4 ovarian
LXFL 529 NSCLC = tested on: LXFL 529 NSCLC
NCI-H460 lung = tested on: NCI-H460 lung
KM20L2 colon = tested on: KM20L2 colon
RXF 393 renal = tested on: RXF 393 renal
SK-OV-3 ovarian = tested on: SK-OV-3 ovarian
MOLT-4 leukemia = tested on: MOLT-4 leukemia
U251 CNS = tested on: U251 CNS
786-0 renal = tested on: 786-0 renal
CCRF-CEM leukemia = tested on: CCRF-CEM leukemia
HOP-18 NSCLC = tested on: HOP-18 NSCLC
SK-MEL-2 melanoma = tested on: SK-MEL-2 melanoma
A498 renal = tested on: A498 renal
ACHN renal = tested on: ACHN renal
HCC-2998 colon = tested on: HCC-2998 colon
NCI-H226 lung = tested on: NCI-H226 lung
DLD-1 colon = tested on: DLD-1 colon
KM12 colon = tested on: KM12 colon
HT29 colon = tested on: HT29 colon
IGROV1 ovarian = tested on: IGROV1 ovarian
SNB-78 CNS = tested on: SNB-78 CNS
HL-60(TB) leukemia = tested on: HL-60(TB) leukemia
HCT-15 colon = tested on: HCT-15 colon
COLO 205 colon = tested on: COLO 205 colon
SF-539 CNS = tested on: SF-539 CNS
HCT-116 colon = tested on: HCT-116 colon
OVCAR-3 ovarian = tested on: OVCAR-3 ovarian
UO-31 renal = tested on: UO-31 renal
K-562 leukemia = tested on: K-562 leukemia
SN12C renal = tested on: SN12C renal
SNB-19 CNS = tested on: SNB-19 CNS
RPMI-8226 leukemia = tested on: RPMI-8226 leukemia
NCI-H522 lung = tested on: NCI-H522 lung
NCI-H23 lung = tested on: NCI-H23 lung
HOP-92 NSCLC = tested on: HOP-92 NSCLC
DMS 273 small cell lung = tested on: DMS 273 small cell lung
SK-MEL-5 melanoma = tested on: SK-MEL-5 melanoma
MALME-3M melanoma = tested on: MALME-3M melanoma
OVCAR-5 ovarian = tested on: OVCAR-5 ovarian
UACC-257 melanoma = tested on: UACC-257 melanoma
XF 498 CNS = tested on: XF 498 CNS
M19-MEL melanoma = tested on: M19-MEL melanoma
DMS 114 small cell lung = tested on: DMS 114 small cell lung
RXF-631 renal = tested on: RXF-631 renal

## N.N.NCCCCCCN.O=C([O-])CC(=O)[O-].O=C([O-])CC(=O)[O-].[Pt+4].[Pt+4]
CAKI-1 renal
  GI50: 26.6 µM
  TGI: > 100 µM
A549 NSCLC
  GI50: > 100 µM
  TGI: > 100 µM
SF-268 CNS
  GI50: 28.9 µM
  TGI: > 100 µM
HOP-62 NSCLC
  GI50: 38.7 µM
  TGI: > 100 µM
SF-295 CNS
  GI50: > 71.6 µM
  TGI: > 100 µM
UACC-62 melanoma
  GI50: 10.5 µM
  TGI: > 100 µM
TK-10 renal
  GI50: > 100 µM
  TGI: > 100 µM
SW-620 colon
  GI50: > 38 µM
  TGI: > 58.7 µM
EKVX NSCLC
  GI50: > 100 µM
  TGI: > 100 µM
M14 melanoma
  GI50: > 86.7 µM
  TGI: > 100 µM
SR leukemia
  GI50: > 41.9 µM
  TGI: > 100 µM
OVCAR-8 ovarian
  GI50: > 100 µM
  TGI: > 100 µM
SNB-75 CNS
  GI50: 38.7 µM
  TGI: > 100 µM
SK-MEL-28 melanoma
  GI50: > 100 µM
  TGI: > 100 µM
LOX IMVI melanoma
  GI50: > 100 µM
  TGI: > 100 µM
OVCAR-4 ovarian
  GI50: > 78.5 µM
  TGI: > 100 µM
LXFL 529 NSCLC
  GI50: > 100 µM
  TGI: > 100 µM
NCI-H460 lung
  GI50: 6.59 µM
  TGI: > 100 µM
KM20L2 colon
  GI50: > 100 µM
  TGI: > 100 µM
RXF 393 renal
  GI50: > 41.4 µM
  TGI: > 100 µM
SK-OV-3 ovarian
  GI50: > 100 µM
  TGI: > 100 µM
MOLT-4 leukemia
  GI50: 5.2 µM
  TGI: > 100 µM
U251 CNS
  GI50: 47.7 µM
  TGI: > 100 µM
786-0 renal
  GI50: 65.7 µM
  TGI: > 100 µM
CCRF-CEM leukemia
  GI50: 15.6 µM
  TGI: > 100 µM
HOP-18 NSCLC
  GI50: > 100 µM
  TGI: > 100 µM
SK-MEL-2 melanoma
  GI50: > 100 µM
  TGI: > 100 µM
A498 renal
  GI50: > 100 µM
  TGI: > 100 µM
ACHN renal
  GI50: 36.1 µM
  TGI: > 100 µM
HCC-2998 colon
  GI50: > 100 µM
  TGI: > 100 µM
NCI-H226 lung
  GI50: > 56.7 µM
  TGI: > 100 µM
DLD-1 colon
  GI50: > 100 µM
  TGI: > 100 µM
KM12 colon
  GI50: > 100 µM
  TGI: > 100 µM
HT29 colon
  GI50: 62.5 µM
  TGI: > 100 µM
IGROV1 ovarian
  GI50: > 100 µM
  TGI: > 100 µM
SNB-78 CNS
  GI50: > 100 µM
  TGI: > 100 µM
HL-60(TB) leukemia
  GI50: 23.7 µM
  TGI: > 100 µM
HCT-15 colon
  GI50: > 66.1 µM
  TGI: > 100 µM
COLO 205 colon
  GI50: 27.7 µM
  TGI: > 100 µM
SF-539 CNS
  GI50: 73.9 µM
  TGI: > 100 µM
HCT-116 colon
  GI50: > 100 µM
  TGI: > 100 µM
OVCAR-3 ovarian
  GI50: > 89.7 µM
  TGI: > 100 µM
UO-31 renal
  GI50: > 100 µM
  TGI: > 100 µM
K-562 leukemia
  GI50: > 86.3 µM
  TGI: > 100 µM
SN12C renal
  GI50: 14.5 µM
  TGI: > 100 µM
SNB-19 CNS
  GI50: > 72.1 µM
  TGI: > 100 µM
RPMI-8226 leukemia
  GI50: > 100 µM
  TGI: > 100 µM
NCI-H522 lung
  GI50: 29 µM
  TGI: > 100 µM
NCI-H23 lung
  GI50: 57.3 µM
  TGI: > 100 µM
HOP-92 NSCLC
  GI50: > 100 µM
  TGI: > 100 µM
DMS 273 small cell lung
  GI50: 40.8 µM
  TGI: > 100 µM
SK-MEL-5 melanoma
  GI50: > 100 µM
  TGI: > 100 µM
MALME-3M melanoma
  GI50: > 100 µM
  TGI: > 100 µM
OVCAR-5 ovarian
  GI50: > 100 µM
  TGI: > 100 µM
UACC-257 melanoma
  GI50: > 100 µM
  TGI: > 100 µM

## COC(=O)C1=C(O)c2cc3c(cc2[C@H](c2cc(OC)c(OC)c(OC)c2)C1C(=O)OC)OCO3 (some centres not stated)
CAKI-1 renal
  TGI: 89.6 µM
A549 NSCLC
  TGI: > 100 µM
SF-268 CNS
  TGI: > 100 µM
HOP-62 NSCLC
  TGI: > 100 µM
SF-295 CNS
  TGI: > 100 µM
UACC-62 melanoma
  TGI: 99.4 µM
TK-10 renal
  TGI: 89.5 µM
SW-620 colon
  TGI: > 100 µM
EKVX NSCLC
  TGI: > 100 µM
M14 melanoma
  TGI: > 100 µM
SR leukemia
  TGI: > 100 µM
OVCAR-8 ovarian
  TGI: > 100 µM
SNB-75 CNS
  TGI: 66 µM
SK-MEL-28 melanoma
  TGI: > 100 µM
LOX IMVI melanoma
  TGI: > 100 µM
OVCAR-4 ovarian
  TGI: 83 µM
LXFL 529 NSCLC
  TGI: > 100 µM
NCI-H460 lung
  TGI: > 100 µM
KM20L2 colon
  TGI: > 100 µM
RXF 393 renal
  TGI: 73.4 µM
SK-OV-3 ovarian
  TGI: > 100 µM
MOLT-4 leukemia
  TGI: > 100 µM
U251 CNS
  TGI: > 100 µM
786-0 renal
  TGI: > 100 µM
CCRF-CEM leukemia
  TGI: > 100 µM
HOP-18 NSCLC
  TGI: 89.4 µM
XF 498 CNS
  TGI: 70 µM
A498 renal
  TGI: > 100 µM
M19-MEL melanoma
  TGI: > 100 µM
ACHN renal
  TGI: 58.1 µM
HCC-2998 colon
  TGI: > 100 µM
NCI-H226 lung
  TGI: > 100 µM
DLD-1 colon
  TGI: > 100 µM
KM12 colon
  TGI: > 100 µM
HT29 colon
  TGI: > 100 µM
IGROV1 ovarian
  TGI: > 100 µM
SNB-78 CNS
  TGI: > 100 µM
HL-60(TB) leukemia
  TGI: > 100 µM
HCT-15 colon
  TGI: > 100 µM
COLO 205 colon
  TGI: 45.7 µM
SF-539 CNS
  TGI: > 100 µM
HCT-116 colon
  TGI: > 100 µM
OVCAR-3 ovarian
  TGI: 92.4 µM
UO-31 renal
  TGI: > 100 µM
K-562 leukemia
  TGI: > 100 µM
SN12C renal
  TGI: 88 µM
DMS 114 small cell lung
  TGI: 68.8 µM
SNB-19 CNS
  TGI: > 100 µM
RXF-631 renal
  TGI: > 100 µM
RPMI-8226 leukemia
  TGI: > 100 µM
NCI-H23 lung
  TGI: > 100 µM
HOP-92 NSCLC
  TGI: > 100 µM
DMS 273 small cell lung
  TGI: > 100 µM
SK-MEL-5 melanoma
  TGI: > 100 µM
MALME-3M melanoma
  TGI: 87.3 µM
OVCAR-5 ovarian
  TGI: > 100 µM
UACC-257 melanoma
  TGI: > 100 µM
